# US4243681A, “Alkylthiophenoxypropanolamines and pharmaceutical compositions and uses thereof” (priority 1979, dated 1981)
# What was measured:
# perfused dog hind limb = test: Peripheral vasodilator activity, perfused dog hind limb (anesthetized dog); assay type: in vivo
# Method: Test Method. Mongrol dogs of either sex weighing between 11 and 16 kg., each, were anesthetized with pentobarbital (30 mg./kg.) administered intravenously. The left brachial vein was cannulated and pentobarbital infused continuously throughout the experiment at a rate of 5 mg./kg./hr. A tracheotomy was performed and dogs ventilated mechanically with room air at a rate of 18 strokes/min. and a volume equivalent to 20 ml./kg. The vagi were sectioned bilaterally in the mid-cervical region of the neck. The right brachial vein and artery were cannulated to inject drugs and to monitor blood pressure via a Statham pressure transducer, respectively. All measurements were recorded on a Beckman-Offner dynograph. The abdominal aorta was exposed through midline incision and a loose ligature placed around the aorta distal to the left renal artery. The right (donor) and left (recipient) femoral arteries were exposed for cannulation and subsequent hind-limb perfursion. Following intravenous administration of heparin (5 mg/kg.) and gallamine triethiodide (2 mg./kg.), the right femoral artery was cannulated and the tip of the catheter advanced into the abdominal aorta to the level of the renal arteries. The left femoral artery was cannulated and the hind-limb perfused using a Harvard Perfusion pump. The ligature previously placed around the aorta was subsequently tied to minimize collateral circulation. […] Perfusion pressure, measured at a point distal to the perfusion pump was set equal to 150 mm Hg. by adjusting pump speed. Blood flow to the limb was determined volumetrically at the conclusion of the experiment. The test agent was administered by infusion at a rate of from 0.1-1.0 mg./min. for a six-minute period and maximum reduction in pressure determined. One to three animals were employed per test agent. […] This protocol precludes effects resulting from animal variation thus permitting a direct side-by-side comparison of vasodilating activity.
# [1] = system: human platelet-rich plasma; test: Inhibition of platelet aggregation in vitro (ADP or collagen induced; antithrombogenic activity); assay type: cell-based
# Method: Test Method. A method similar to that described in Born, Nature 194, 927 (1962) and O'Brien, J. Clinical Pathology 15, 446 (1962). This test comprises a nephelometric method in which the change in turbidity of a specimen of human platelet-rich plasma is measured on causation of platelet aggregation by addition of adenosine diphosphate (ADP) or collagen as the thrombogenic inducing agent. An increase in transmittance light occurs when the thrombogenic agent is added to the specimen of platelet-rich plasm due to clumping of platelets. Efficacy of the test compound is determined by ability to prevent the clumping and concommitant increase in transmittance. Various concentrations of the test agent are tested and that concentration causing a 50% reduction in the thrombogenic response is determined from a concentration-response curve.
# adrenergic beta-receptor = molecular target: T1, adrenergic beta-receptor (Cavia porcellus, UniProt Q8K4Z4); test: Beta-adrenergic blocking activity in the isolated guinea pig trachea (isoproterenol); assay type: cell-based; conditions: potency relative to propanol (equals one); isoproterenol 0.1 mcg./ml.
# T1 construct: Tracheas excised from adult guinea pigs; from tissue; host or cells: guinea pig trachea (spirally cut segments)
# Method: Test Method. […] The lower end of a tracheal segment is fixed to a stationary glass rod and the upper end is threaded to an isometric tension transducer. Changes in the spontaneous tonus of the tracheal smooth muscle are monitored via the transducer and recorded continuously on an electronic recorder. Adrenergic beta-receptor blocking activity is determined by the ability of a test agent to inhibit the response of the isolated tissue to the adrenergic beta-stimulant "isoproterenol" at a concentration of 0.1 mcg./ml. bath fluid. The tissues are exposed to the test agent solution for a 15-min. interval prior to the addition of isoproterenol to the bath fluid. Beta-receptor blocking potency of a test drug is ascertained from concentration-response relationships wherein the response is expressed as a percent inhibition of isoproterenol-induced tissue response. […] Each drug solution is added to the tissue bathing medium at a constant volume of 0.2 ml./ml. of bath fluid and only one test drug concentration is employed for an individual tissue segment. Potency of the test agent relative to that of the beta-adrenergic blocking agent "propanolol" as a reference standard is assessed by comparing the IC50 values.
# rabbit thoracic aorta = test: Isolated rabbit thoracic aorta, antispasmodic activity vs. potassium chloride; assay type: cell-based, rabbit (New Zealand White); conditions: potency relative to papaverine (equals one), from pA2 vs. potassium chloride
# Method: Test Method. Antispasmodic activity was assessed in vitro by determining the effect of the test substance on induced contraction of arterial smooth muscle as follows. Adult, male, New Zealand White rabbits (body weight 2.5-4 kg.) were used. Each rabbit was killed by i.v. air injection. The thorax was opened and the descending thoracic aorta removed and placed in Kreb's-bicarbonate solution. Extraneous tissue was removed and the aorta was cut spirally along its entire length. Four spiral segments, each approximately 2 cm. in length (unstretched), were obtained from each thoracic aorta. […] The bath medium surrounding the aortic spiral (Kreb's-bicarbonate solution) was maintained at 37.5°C. and constantly aerated with 95% O2 :5% CO2. Activity of the aortic smooth muscle was recorded on an electronic polygraph via its connection to the tension transducer. After an equilibration period of 60 min., a cumulative dose-response curve was obtained to an agonist (e.g. potassium chloride or norepinephrine) and the tissue then washed. Seventy-five min. later, a second cumulative dose-response curve to the agonist was obtained and the tissue washed again. Sixty min. later, a test drug solution was added to the tissue bath fluid and, after 15 min., drug exposure and, without washing, a third and final agonist-response curve was obtained. All additions to the bath fluid were 0.1 ml. volumes of aqueous solutions.
# platelet survival = test: Platelet survival time in rats with intra-arterial catheters; assay type: in vivo, rat
# Description: (a) Rats with intra-arterial catheters have periods of shortened platelet survival time. This shortened survival time is normalized with the compound of Example 2.
# mesenteric arteries [2] = test: Basal tone of mesenteric arteries of dogs; set-up: species or system dog
# Description: (§1) (b) The compound of Example 2 elevated basal tone of mesenteric arteries of dogs and rabbits. This effect is considered valuable in the treatment of peripheral and cerebral vascular diseases.
# mesenteric arteries [3] = test: Basal tone of mesenteric arteries of rabbits; set-up: species or system rabbit
# Description: as §1
# red blood cell = test: Red blood cell rigidity via chromium^51 labeling technique; assay type: cell-based
# rabbit eye = test: Local anesthetic activity, topical application to the rabbit eye; assay type: in vivo
# guinea pig skin = test: Local anesthetic activity, intradermal infiltration of guinea pig skin; assay type: in vivo
# [4] = 0.3 mg./min., side-by-side comparison
# T1 sequence (Q8K4Z4 whole entry): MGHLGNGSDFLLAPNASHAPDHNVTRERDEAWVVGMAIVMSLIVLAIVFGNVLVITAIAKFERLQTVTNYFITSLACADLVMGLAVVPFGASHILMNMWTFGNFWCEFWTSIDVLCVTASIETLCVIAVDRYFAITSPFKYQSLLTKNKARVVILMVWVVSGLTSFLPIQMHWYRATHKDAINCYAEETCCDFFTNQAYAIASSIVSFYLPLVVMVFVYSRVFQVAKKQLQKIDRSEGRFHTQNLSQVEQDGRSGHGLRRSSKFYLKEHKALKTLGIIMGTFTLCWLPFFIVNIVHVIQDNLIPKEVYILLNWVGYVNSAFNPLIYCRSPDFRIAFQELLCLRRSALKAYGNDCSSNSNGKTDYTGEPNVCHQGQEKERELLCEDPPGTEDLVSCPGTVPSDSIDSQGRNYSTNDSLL
structure (smiles),measurement,setting,value
"CCCCCCCCNCC(O)COc1ccc(SC(C)C)cc1.Cl (stereo not drawn) [Example 2, 1-[4-[(1-Methylethyl)thio]phenoxy]-3-(octylamino)-2-propanol Hydrochloride]",vasodilator effect relative to test agent A,perfused dog hind limb; [4],approximately 3.2 times
same,vasodilator effect relative to test agent B,perfused dog hind limb; [4],~21 times
same,Pressure Decrease,perfused dog hind limb; infusion rate 0.3 mg./min.,-44 Millimeters of mercury
same,Pressure Decrease,"perfused dog hind limb; infusion rate 0.3 mg./min., side-by-side comparison in same animals",-63 Millimeters of mercury
same,Pressure Decrease,perfused dog hind limb; infusion rate 1.0 mg./min.,-99 Millimeters of mercury
same,ED50 ADP (inhibition of platelet aggregation),[1]; aggregation induced by 1 mcg. ADP,56 Microgram/0.5 ml. plateletrich human plasma
same,ED50 Coll (inhibition of platelet aggregation),[1]; minimal amount of collagen producing maximal aggregation,31 Microgram/0.5 ml. plateletrich human plasma
same,Beta-Adrenergic Blocking Potency,adrenergic beta-receptor,< 0.001
same,Antispasmodic Potency,rabbit thoracic aorta,0.6
same,shortened platelet survival time,platelet survival,normalized
same,basal tone of mesenteric arteries,mesenteric arteries [2],elevated
same,basal tone of mesenteric arteries,mesenteric arteries [3],elevated
same,red blood cell rigidity,red blood cell,decreased
same,local anesthetic activity vs. lidocaine,rabbit eye,greater than
same,local anesthetic activity vs. lidocaine,guinea pig skin,as great as
